The target of this experiment is HIF PHD2 (Homo sapiens, UniProt Q9GZT9). In words: PHD2 inhibition assay (TR-FRET, VCB-Eu detection of hydroxylated P564-HIF1α peptide). Format: biochemical. Particulars: 2 nM PHD2, 100 nM P564-HIF1α peptide, 0.25 μM 2-oxoglutarate, 100 μM FeCl2, 2 mM ascorbic acid. The method, boiled down: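 Human PHD2 (2 nM final) preincubated 1 h at room temperature with compound and 100 μM FeCl2 in pH 6 MES buffer, 5% DMSO final. Reaction with 100 nM biotinylated P564-HIF1α peptide, 2 mM ascorbate and 0.25 μM 2-oxoglutarate for 1 h, stopped with succinate. Hydroxylation read by TR-FRET (VCB-Eu/streptavidin-APC, 655/615 nm); IC50 from 4-parameter fit of percent of control.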
Sequence of HIF PHD2 (Q9GZT9 whole entry): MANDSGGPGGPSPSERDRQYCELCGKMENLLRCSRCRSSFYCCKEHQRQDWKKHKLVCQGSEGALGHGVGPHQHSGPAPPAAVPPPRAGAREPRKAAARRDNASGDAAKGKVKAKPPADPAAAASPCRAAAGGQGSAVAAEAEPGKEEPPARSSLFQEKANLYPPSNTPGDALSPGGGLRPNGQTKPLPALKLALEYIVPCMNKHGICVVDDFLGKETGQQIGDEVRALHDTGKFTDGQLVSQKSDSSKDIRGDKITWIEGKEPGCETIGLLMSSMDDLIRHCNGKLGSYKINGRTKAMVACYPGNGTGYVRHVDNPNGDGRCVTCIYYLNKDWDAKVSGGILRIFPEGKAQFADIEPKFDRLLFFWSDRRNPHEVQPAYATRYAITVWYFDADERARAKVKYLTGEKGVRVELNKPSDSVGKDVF

The IC50 is the point on the concentration scale where inhibition reaches its midpoint. Read a low IC50 as higher potency.

As to `O=C(O)CNC(=O)C1=C(O)c2c(Cl)cccc2C2(CCOCC2)C1=O` [Example 112, N-((5-Chloro-2-hydroxy-4-oxo-2′,3′,5′,6′-tetrahydro-4H-spiro[naphthalene-1,4′-pyran]-3-yl)carbonyl)glycine], the half-inhibitory concentration (IC50) was less than 100 nM. Turning to `O=C(O)CNC(=O)C1=C(O)c2cccc(Cl)c2C2(CCOCC2)C1=O` [Example 111, N-((8-Chloro-2-hydroxy-4-oxo-2′,3′,5′,6′-tetrahydro-4H-spiro[naphthalene-1,4′-pyran]-3-yl)carbonyl)glycine], the IC50 is less than 100 nM.

For `CCC1(C)C(=O)C(C(=O)NCC(=O)O)=C(O)c2cc(Cl)ccc21` (centres unmarked) [Example 15, N-((6-Chloro-1-ethyl-4-hydroxy-1-methyl-2-oxo-naphthalen-3-yl)carbonyl)glycine], the IC50 is 100 to 500 nM. Compound `O=C(O)CNC(=O)C1=C(O)c2cc(Cl)ccc2C2(CCOCC2)C1=O` [Example 1, N-((6-Chloro-4-hydroxy-2-oxo-2′,3′,5′,6′-tetrahydro-2H-spiro[naphthalene-1,4′-pyran]-3-yl)carbonyl)glycine] displayed an IC50 of less than 100 nM. For the compound `CC1(C)C(=O)C(C(=O)NCC(=O)O)=C(O)c2ccc(Cl)c(Cl)c21` [Example 31, N-((7,8-Dichloro-4-hydroxy-1,1-dimethyl-2-oxo-naphthalen-3-yl)carbonyl)glycine], the IC50 was less than 100 nM. The result for `CC[C@]1(C)C(=O)C(C(=O)NCC(=O)O)=C(O)c2cc(Cl)ccc21` [Example 79, N-(((1S)-6-Chloro-4-hydroxy-1-ethyl-1-methyl-2-oxo-naphthalen-3-yl)carbonyl)glycine] reads 100 to 500 nM. `C[C@@]1(C#N)C(=O)C(C(=O)NCC(=O)O)=C(O)c2ccccc21` [Example 87, N-(((1R)-1-Cyano-4-hydroxy-1-methyl-2-oxo-naphthalen-3-yl)carbonyl)glycine] showed an IC50 of less than 100 nM. The compound `CC1(C)C(=O)C(C(=O)NCC(=O)O)=C(O)c2cc(F)ccc21` [Example 13, N-((6-Fluoro-4-hydroxy-1,1-dimethyl-2-oxo-naphthalene-3-yl)carbonyl)glycine] came in with an IC50 of less than 100 nM. As for `CC1(C)C(=O)C(C(=O)NCC(=O)O)=C(O)c2ccc(-c3ccccc3)cc21` [Example 52, N-((7-Phenyl-4-hydroxy-1,1-dimethyl-2-oxo-naphthalen-3-yl)carbonyl)glycine], the IC50 lay within 100 to 500 nM. The value for `O=C(O)CNC(=O)C1=C(O)c2cc(Cl)ccc2[C@@]2(CCOC2)C1=O` [Example 10, N-(((3R)-6′-Chloro-4′-hydroxy-2′-oxo-4,5-dihydro-spiro[furan-3,1′-naphthalen]-3′-yl)carbonyl)glycine] was less than 100 nM; that for `O=C(O)CNC(=O)C1=C(O)c2cc(F)c(Cl)cc2C2(CCOCC2)C1=O` [Example 97, N-((7-Chloro-6-fluoro-4-hydroxy-2-oxo-2′,3′,5′,6′-tetrahydro-spiro[naphthalene-1,4′-pyran]-3-yl)carbonyl)glycine] was less than 100 nM. In turn, `O=C(O)CCC(=O)C1=C(O)c2cc(Cl)ccc2C2(CCOCC2)C1=O` [Example 119, 4-(6-Chloro-2-hydroxy-4-oxo-2′,3′,5′,6′-tetrahydro-4H-spiro[naphthalene-1,4′-pyran]-3-yl)-4-oxobutanoic acid] returned a half-inhibitory concentration (IC50) of less than 100 nM. Consider “(R)-2-(7-chloro-1- cyano-4-hydroxy-1- methyl-2-oxo-1,2- dihydronaphthalene- 3-carboxamido) acetic acid or (S)-2-(7-chloro-1- cyano-4-hydroxy-1- methyl-2-oxo-1,2- dihydronaphthalene- 3-carboxamido) acetic acid [Example 136]”, for which the IC50 is less than 100 nM. Take `C[C@@H](NC(=O)C1=C(O)c2cc(Cl)ccc2C(C)(C)C1=O)C(=O)O` [Example 102, N-((6-chloro-4-hydroxy-1,1-dimethyl-2-oxo-naphthalen-3-yl)carbonyl)-D-alanine]: the IC50 was greater than 10000 nM.

With `CCC1(C)C(=O)C(C(=O)NCC(=O)O)=C(O)c2ccc(Cl)cc21` (centres unmarked) [Example 43, N-((7-Chloro-1-ethyl-4-hydroxy-1-methyl-2-oxo-naphthalen-3-yl)carbonyl)glycine], the half-maximal inhibitory concentration (IC50) was 100 to 500 nM.

Turning to `O=C(O)CNC(=O)C1=C(O)c2ccc(C(F)(F)F)cc2C2(CCOCC2)C1=O` [Example 45, N-((7-Trifluoromethyl-4-hydroxy-2-oxo-2′,3′,5′,6′-tetrahydro-spiro[naphthalene-1,4′-pyran]-3-yl)carbonyl)glycine], the IC50 is less than 100 nM. With `CC1(C)C(=O)C(C(=O)NCC(=O)O)=C(O)c2ccc(C(F)(F)F)cc21` [Example 49, N-((7-Trifluoromethyl-4-hydroxy-1,1-dimethyl-2-oxo-naphthalen-3-yl)carbonyl)glycine], the IC50 is less than 100 nM.
